{"source": "patent US20160016929A1", "about": "“PRO-DRUG COMPOUNDS” (PROXIMAGEN LIMITED, priority 2013, published 2016)", "key": {"hERG K+ channel": {"target": "T1, hERG K+ channel (Homo sapiens, UniProt Q12809)", "T1 construct": "a Chinese Hamster Lung cell line stably expressing the full length hERG channel; expressed in transfected cells; host or cells: Chinese Hamster Lung cell line", "T1 sequence (Q12809 whole entry)": "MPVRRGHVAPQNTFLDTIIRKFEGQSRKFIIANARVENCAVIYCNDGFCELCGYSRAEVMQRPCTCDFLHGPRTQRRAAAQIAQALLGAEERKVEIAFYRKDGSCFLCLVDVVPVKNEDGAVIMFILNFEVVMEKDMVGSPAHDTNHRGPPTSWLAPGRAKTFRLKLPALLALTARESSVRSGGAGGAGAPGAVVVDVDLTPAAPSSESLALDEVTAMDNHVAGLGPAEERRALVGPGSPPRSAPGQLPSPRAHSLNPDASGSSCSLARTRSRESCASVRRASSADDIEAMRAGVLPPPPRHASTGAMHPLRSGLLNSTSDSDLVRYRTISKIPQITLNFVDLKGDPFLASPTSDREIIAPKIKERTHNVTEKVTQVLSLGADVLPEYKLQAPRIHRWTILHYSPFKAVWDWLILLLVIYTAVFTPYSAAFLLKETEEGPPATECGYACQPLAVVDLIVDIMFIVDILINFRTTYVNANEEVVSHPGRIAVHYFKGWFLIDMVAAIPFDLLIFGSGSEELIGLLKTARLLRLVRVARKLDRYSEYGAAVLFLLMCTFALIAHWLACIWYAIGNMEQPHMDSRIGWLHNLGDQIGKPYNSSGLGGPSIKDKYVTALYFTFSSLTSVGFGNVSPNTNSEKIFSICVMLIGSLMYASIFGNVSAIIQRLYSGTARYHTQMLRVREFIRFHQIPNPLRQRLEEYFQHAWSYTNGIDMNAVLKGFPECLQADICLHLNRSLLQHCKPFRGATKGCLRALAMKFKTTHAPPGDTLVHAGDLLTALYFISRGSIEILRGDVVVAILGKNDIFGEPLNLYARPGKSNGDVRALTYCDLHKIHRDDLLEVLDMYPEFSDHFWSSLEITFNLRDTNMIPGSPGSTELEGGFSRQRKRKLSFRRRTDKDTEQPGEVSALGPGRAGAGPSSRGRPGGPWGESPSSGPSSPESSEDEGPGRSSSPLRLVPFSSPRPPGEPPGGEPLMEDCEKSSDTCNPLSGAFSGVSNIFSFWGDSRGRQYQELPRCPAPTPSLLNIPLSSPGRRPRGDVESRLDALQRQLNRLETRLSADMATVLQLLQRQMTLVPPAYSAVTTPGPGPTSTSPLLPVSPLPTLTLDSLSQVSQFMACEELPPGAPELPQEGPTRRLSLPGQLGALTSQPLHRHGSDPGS", "assay": "hERG assay, IonWorks patch clamp electrophysiology", "type": "cell-based", "conditions": "human, pH 7.3; 11 uM; Chinese Hamster Lung cell line stably expressing hERG", "experimental": "Compounds of the invention were tested for inhibition of the human ether a go-go related gene (hERG) K^+ channel using IonWorks patch clamp electrophysiology. 8 Point concentration-response curves were generated on two occasions using 3-fold serial dilutions from the maximum assay concentration (33 uM). Electrophysiological recordings were made from a Chinese Hamster Lung cell line stably expressing the full length hERG channel. Single cell ion currents were measured in the perforated patch clamp configuration (100 ug/mL amphoterocin) at room temperature using an IonWorks Quattro instrument. The internal solution contained 140 mM KCl, 1 mM MgCl2, 1 mM EGTA and 20 mM HEPES and was buffered to pH 7.3. The external solution contained 138 mM NaCl, 2.7 mM KCl, 0.9 mM CaCl2, 0.5 mM MgCl2, 8 mM Na2HPO4 and 1.5 mM KH2PO4, and was buffered to pH 7.3. Cells were clamped at a holding potential of […] for 30 s and then stepped to +40 mV for 1 s. This was followed by a hyperpolarising step of 1 s to […] to evoke the hERG tail current. This sequence was repeated 5 times at a frequency of 0.25 Hz. Currents were measured from the tail step at the 5th pulse, and referenced to the holding current. Compounds were incubated for 6-7 min prior to a second measurement of the hERG signal using an identical pulse train. A minimum of 17 cells were required for each pIC50 curve fit. A control compound (quinidine) was used."}, "[1]": {"assay": "Solubility in aqueous solutions (Table 3)", "type": "physicochemical", "conditions": "aqueous solution", "experimental": "The skilled person understands that the pH of the gastrointestinal tract changes along its length. […] For more detail see, for example, Measurement of gastrointestinal pH profiles in normal ambulant human subjects, Gut. […] Improved solubility is expected to result in improved absorption, and therefore improved oral bioavailability.\nIn an embodiment prodrugs of the invention are administered intravenously. High prodrug solubility is advantageous in order to reduce the volume of solution administered to the patient, and to reduce the risk of damage to the circulatory system. Solubility of >10 mg/mL is preferred."}}, "data": [{"smiles": "CC(=O)c1ccc2c(c1)[C@H](NC(=O)c1ccc(F)c(Cl)c1)[C@H](OC(=O)CNC(=O)[C@@H]1CCCN1)C(C)(C)O2", "note": "[Example 10, (3S,4S)-6-Acetyl-4-[(3-chloro-4-fluorobenzene)amido]-2,2-dimethyl-3,4-dihydro-2H-1-benzopyran-3-yl 2-[(2S)-pyrrolidin-2-ylformamido]acetate]", "values": [{"measurement": "inhibition at 11 µM", "setting": "hERG K+ channel", "result": 32, "unit": "%"}, {"measurement": "solubility", "setting": "[1]; pH 4.2, aqueous buffer", "result": 500, "unit": "µg/mL"}]}, {"smiles": "CC(=O)c1ccc2c(c1)[C@H](NC(=O)c1ccc(F)c(Cl)c1)[C@H](OC(=O)[C@H](C)NC(=O)[C@@H](N)C(C)C)C(C)(C)O2.Cl", "note": "[Example 20, (3S,4S)-6-Acetyl-4-[(3-chloro-4-fluorobenzene)amido]-2,2-dimethyl-3,4-dihydro-2H-1-benzopyran-3-yl (2S)-2-[(2S)-2-amino-3-methylbutanamido]propanoate hydrochloride]", "values": [{"measurement": "solubility", "setting": "[1]; pH 5.6, aqueous buffer", "result": "> 10000", "unit": "µg/mL"}]}, {"smiles": "CC(=O)c1ccc2c(c1)[C@H](NC(=O)c1ccc(F)c(Cl)c1)[C@H](OC(=O)NCC(=O)O)C(C)(C)O2", "note": "[Example 7, 2-[({[(3S,4S)-6-Acetyl-4-[(3-chloro-4-fluorobenzene)amido]-2,2-dimethyl-3,4-dihydro-2H-1-benzopyran-3-yl]oxy}carbonyl)amino]acetic acid]", "values": [{"measurement": "solubility", "setting": "[1]; pH 8.8, aqueous buffer", "result": "< 1000", "unit": "µg/mL"}]}, {"smiles": "CC[C@H](C)[C@H](N)C(=O)NCC(=O)O[C@H]1[C@@H](NC(=O)c2ccc(F)c(Cl)c2)c2cc(C(C)=O)ccc2OC1(C)C.Cl", "note": "[Example 13, (3S,4S)-6-Acetyl-4-[(3-chloro-4-fluorobenzene)amido]-2,2-dimethyl-3,4-dihydro-2H-1-benzopyran-3-yl 2-[(2S,3S)-2-amino-3-methylpentanamido]acetate hydrochloride]", "values": [{"measurement": "inhibition at 11 µM", "setting": "hERG K+ channel", "result": 2, "unit": "%"}, {"measurement": "solubility", "setting": "[1]; aqueous buffer, pH 5.0", "result": "> 10000", "unit": "µg/mL"}]}, {"smiles": "CC(=O)c1ccc2c(c1)[C@H](NC(=O)c1ccc(F)c(Cl)c1)[C@H](OC(=O)[C@H](C)NC(=O)[C@@H](N)CC(C)C)C(C)(C)O2.Cl", "note": "[Example 21, 6-Acetyl-4-[(3-chloro-4-fluorobenzene)amido]-2,2-dimethyl-3,4-dihydro-2H-1-benzopyran-3-yl (2S)-2-[(2S)-2-amino-4-methylpentanamido]propanoate hydrochloride]", "values": [{"measurement": "solubility", "setting": "[1]; pH 5.2, aqueous buffer", "result": "> 10000", "unit": "µg/mL"}]}, {"smiles": "CC(=O)c1ccc2c(c1)[C@H](NC(=O)c1ccc(F)c(Cl)c1)[C@H](OC(=O)CNC(=O)[C@@H](N)CC(C)C)C(C)(C)O2.Cl", "note": "[Example 11, (3S,4S)-6-Acetyl-4-[(3-chloro-4-fluorobenzene)amido]-2,2-dimethyl-3,4-dihydro-2H-1-benzopyran-3-yl 2-[(2S)-2-amino-4-methylpentanamido]acetate hydrochloride]", "values": [{"measurement": "inhibition at 11 µM", "setting": "hERG K+ channel", "result": 34, "unit": "%"}, {"measurement": "solubility", "setting": "[1]; aqueous buffer, pH 5.0", "result": "> 10000", "unit": "µg/mL"}]}, {"smiles": "CC(=O)c1ccc2c(c1)[C@H](NC(=O)c1ccc(F)c(Cl)c1)[C@H](OC(=O)[C@@H](NC(=O)CN)C(C)C)C(C)(C)O2.Cl", "note": "[Example 16, (3S,4S)-6-Acetyl-4-[(3-chloro-4-fluorobenzene)amido]-2,2-dimethyl-3,4-dihydro-2H-1-benzopyran-3-yl (2S)-2-(2-aminoacetamido)-3-methylbutanoate hydrochloride]", "values": [{"measurement": "solubility", "setting": "[1]; pH 4.4, aqueous buffer", "result": 1000, "unit": "µg/mL"}]}, {"smiles": "CCN(CC)CCOC(=O)O[C@H]1[C@@H](NC(=O)c2ccc(F)c(Cl)c2)c2cc(C(C)=O)ccc2OC1(C)C", "note": "[Example 3, (3S,4S)-6-Acetyl-4-[(3-chloro-4-fluorobenzene)amido]-2,2-dimethyl-3,4-dihydro-2H-1-benzopyran-3-yl 2-(diethylamino)ethyl carbonate]", "values": [{"measurement": "inhibition at 11 µM", "setting": "hERG K+ channel", "result": 20, "unit": "%"}, {"measurement": "solubility", "setting": "[1]; aqueous buffer, pH not given", "result": "< 1000", "unit": "µg/mL"}]}, {"smiles": "CC(=O)c1ccc2c(c1)[C@H](NC(=O)c1ccc(F)c(Cl)c1)[C@H](OC(=O)OCC[N+](C)(C)C)C(C)(C)O2.[I-]", "note": "[Example 2, (3S,4S)-6-Acetyl-4-[(3-chloro-4-fluorobenzene)amido]-2,2-dimethyl-3,4-dihydro-2H-1-benzopyran-3-yl 2-(trimethylazaniumyl)ethyl carbonate iodide]", "values": [{"measurement": "solubility", "setting": "[1]; aqueous buffer, pH not given", "result": "< 1000", "unit": "µg/mL"}]}, {"smiles": "CC(=O)c1ccc2c(c1)[C@H](NC(=O)c1ccc(F)c(Cl)c1)[C@H](OC(=O)[C@H](C)N(C)C(=O)[C@@H](N)C(C)C)C(C)(C)O2.Cl", "note": "[Example 29, 6-Acetyl-4-[(3-chloro-4-fluorobenzene)amido]-2,2-dimethyl-3,4-dihydro-2H-1-benzopyran-3-yl (2S)-2-[(2S)-2-amino-N,3-dimethylbutanamido]propanoate hydrochloride]", "values": [{"measurement": "solubility", "setting": "[1]; pH 5.3, aqueous buffer", "result": "> 10000", "unit": "µg/mL"}]}, {"smiles": "CC(=O)c1ccc2c(c1)[C@H](NC(=O)c1ccc(F)c(Cl)c1)[C@H](OC(=O)[C@@H](NC(=O)[C@@H](N)C(C)C)C(C)C)C(C)(C)O2.Cl", "note": "[Example 15, (3S,4S)-6-Acetyl-4-[(3-chloro-4-fluorobenzene)amido]-2,2-dimethyl-3,4-dihydro-2H-1-benzopyran-3-yl (2S)-2-[(2S)-2-amino-3-methylbutanamido]-3-methylbutanoate hydrochloride]", "values": [{"measurement": "inhibition at 11 µM", "setting": "hERG K+ channel", "result": 21, "unit": "%"}, {"measurement": "solubility", "setting": "[1]; pH 4.5, aqueous buffer", "result": "> 10000", "unit": "µg/mL"}]}, {"smiles": "CC(=O)c1ccc2c(c1)[C@H](NC(=O)c1ccc(F)c(Cl)c1)[C@H](OC(=O)CNC(=O)CN)C(C)(C)O2.Cl", "note": "[Example 12, (3S,4S)-6-Acetyl-4-[(3-chloro-4-fluorobenzene)amido]-2,2-dimethyl-3,4-dihydro-2H-1-benzopyran-3-yl 2-(2-aminoacetamido)acetate hydrochloride]", "values": [{"measurement": "inhibition at 11 µM", "setting": "hERG K+ channel", "result": 43, "unit": "%"}, {"measurement": "solubility", "setting": "[1]; pH 5.1, aqueous buffer", "result": "> 10000", "unit": "µg/mL"}]}, {"smiles": "CC(=O)c1ccc2c(c1)[C@H](NC(=O)c1ccc(F)c(Cl)c1)[C@H](OC(=O)CCCN1CCOCC1)C(C)(C)O2.Cl", "note": "[Example 17, (3S,4S)-6-Acetyl-4-[(3-chloro-4-fluorobenzene)amido]-2,2-dimethyl-3,4-dihydro-2H-1-benzopyran-3-yl 4-(morpholin-4-yl)butanoate hydrochloride]", "values": [{"measurement": "inhibition at 11 µM", "setting": "hERG K+ channel", "result": 27, "unit": "%"}, {"measurement": "solubility", "setting": "[1]; pH 5.7, aqueous buffer", "result": 1000, "unit": "µg/mL"}]}, {"smiles": "CC(=O)c1ccc2c(c1)[C@H](NC(=O)c1ccc(F)c(Cl)c1)[C@H](OC(=O)CNC(=O)[C@@H](N)C(C)C)C(C)(C)O2.Cl", "note": "[Example 14, (3S,4S)-6-Acetyl-4-[(3-chloro-4-fluorobenzene)amido]-2,2-dimethyl-3,4-dihydro-2H-1-benzopyran-3-yl 2-[(2S)-2-amino-3-methylbutanamido]acetate hydrochloride]", "values": [{"measurement": "inhibition at 11 µM", "setting": "hERG K+ channel", "result": 14, "unit": "%"}, {"measurement": "solubility", "setting": "[1]; pH 5.5, aqueous buffer", "result": "> 10000", "unit": "µg/mL"}]}]}
